Measurements from patent US20190216751A1, “Compositions and Methods for the Treatment and Prevention of Cancer” (California State University Northridge, priority 2017, published 2019).

Key:
[1] = test system: MCF10A; test: Cell proliferation assay (CellTiter 96 AQueous One, MTS); type: cell-based, human; details: non-malignant mammary cell line
Experimental: The CellTiter 96® AQueous One Solution (Promega) was used to perform cell proliferation experiments. Cells were plated at 5e3 cells/mL at 200 μL/well in a 96-well plate and allowed to attach overnight. Cells were then treated with indicated drugs the next day at various concentrations. After 72 hours of drug treatments, 40 μL of AQueous One solution was added to each well. Absorbance readings were measured at 490 nm wavelength at 1.5, 2 and 3 hours (absorbance is directly proportional to the number of living cells).

[2] = test system: PEAK1 protein; test: Western blot PEAK1; type: cell-based, mouse, human; details: GC7 0.1 μM to 100 μM, 48 hours; 4T1, 67NR and MCF10CA1a cells
Experimental: (§1) The inventors sought to determine if the decrease in cell viability is due to the inhibition of post translational modification of eIF5A. To test this, all cell lines were treated with GC7 at 100 μM for 48 hours—which were the time point and concentration at which a decrease in cell viability was seen (FIG. 2B). The inventors then collected, performed a western blot and immunoblotted for hypusine, total eIF5A and β-actin as a loading control (FIG. 3A). […] To test if this effect is dose-dependent, 4T1, 67NR and MCF10CA1a cells were treated with various concentrations of GC7 ranging from 0.1 μM to 100 μM. Protein lysates were then collected after 48 hours of treatment and performed a western blot. […] To validate this in breast cancer cells, the inventors immunoblotted for PEAK1 as well as E-cadherin, hypusine, total eIF5A and β-actin as a loading control (FIG. 3B). […] The inventors next looked at cell viability at lower concentrations of GC7, such as 1 μM and 10 μM, where a decrease in hypusinated eIF5A is still achieved but the decrease in cell viability is not as great in lower concentrations that do still target hypusinated eIF5A (FIG. 3C).
(§2) Cell lines were plated in a 6 well plate at 1e5 cells/mL and left to attach overnight. […] Protein concentrations were determined using Bradford Assay. […] Band intensity graphs were quantified using Fiji software after image thresholding.

[3] = test system: E-cadherin in 67NR cell line; test: Western blot E-cadherin after GC7; type: cell-based, mouse; details: increased GC7 concentration, 48 hours; only in 67NR
Experimental: as §1, §2

[4] = test system: ZEB1 expression in MCF10CA1a cells; test: qPCR ZEB1 mRNA, TGFβ-induced EMT; type: cell-based, human; details: GC7 10 μM pre-treatment, TGFβ 2.5 ng/mL 48 hours, fibronectin
Text: The pathway in which the inventors are interested in targeting eIF5A is in the context of TGFβ-induced EMT and TGFβ is a well-characterized inducer of EMT. […] Phase-contrast images are shown to the right of the western blot to indicate a shift in morphology after treatment with TGFβ. […] Since TGFβ can induce PEAK1 upregulation, while in contrast, hypusinated eIF5A promotes PEAK1 translation, the inventors sought to see if TGFβ alone can upregulate hypusinated eIF5A. Post-translational modifications can occur relatively fast. Therefore short-term treatments of TGFβ on 4T1, 67NR and MCF10CA1a cells were performed initially. Protein lysates were collected after 10, 30 and 120 minutes of treatment and immunoblotted for hypusine, total eIF5A and β-actin (FIG. 4B). […] Relative band intensity is graphed to the right of the western blot in which the ratio between hypusine to total eIF5A is compared first between treated samples to control samples then a ratio is calculated comparing each time point relative to 10 minutes as a starting time point of reference. […] The inventors were also interested in what genes were altered at the transcriptional level when dual treating with TGFβ and GC7 at the same time to block EMT. […]

[5] = test system: eIF5A; details: during GC7 treatment; cited from earlier work

N=C(N)NCCCCCCCN.O=S(=O)(O)O [GC7, N1-Guanyl-1,7-diaminoheptane]
sensitivity to GC7 treatment [1]: one of the most sensitive | PEAK1 protein expression [2]: striking down regulation of PEAK1 protein in a dose-dependent manner | E-cadherin protein expression [3]: decrease in E-cadherin | TGFβ-induced EMT (ZEB1 mRNA) [4]: this EMT was blocked | FOXP3+ regulatory T cells at the site of the tumor [5]: significantly increased | pancreatic and splenic CD8+ lymphocytes [5]: did not seem to be affected | recruitment of CD4+ T cells at the site of the tumor [5]: significantly decrease
